Assay results: patent US20190022225A1, “PROTOCOL FOR INCREASING LIFE EXPECTANCY IN A TEST SUBJECT” (Mayo Foundation for Medical Education and Research, priority 2015, published 2019)
“Also recorded” adds a separate entry of the source. Read-outs that look alike come from different tables or passages of the source.

Legend:
[1] = tested on: quiescent high density non senescent cells (HD NsC); experiment: Cell survival EC50 of MDM2 inhibitors, quiescent high density non senescent cells; settings: read-out: Cell survival data EC50 HD NsC
[2] = tested on: Senescent cells (SnC); experiment: Cell survival EC50 of MDM2 inhibitors, senescent cells; settings: for EC50: read-out: Cell survival data EC50 SnC
[3] = tested on: senescent (irradiated) IMR90 cells; experiment: CellTiter-Glo cell viability assay, senescent IMR90; type: cell-based, human
Protocol: (§1) To determine whether ABT-263 is selectively toxic to senescent cells compared to non-senescent cells, a cell viability assay was used to assess cell survival following treatment with ABT-263. IMR90 cells (human primary lung fibroblasts (IMR90) (IMR-90 (ATCC® CCL-186™, Mannassas, Va.) were seeded in six well plates, and cells were induced to senescence with 10 Gy of ionizing radiation (IR) (Day 0). The media was refreshed every 3 days. The senescent phenotype is allowed to develop for 7 days at which point a cell count was made to determine the baseline number of cells followed by seeding into 96-well plates. On day 8, the senescent cells (irradiated) and the non-senescent cells (the non-radiated cells), were exposed to serial dilutions of ABT-263 for a period of 3 days. ABT-263 concentrations ranged from 0.5 nM to 3 μM. Each condition was seeded in triplicate.
(§2) After three days of treatment (Day 11), cells were assayed for cell survival using the commercially available CellTiter-Glo® (CTG) Luminescent Cell Viability Assay (Promega Corporation, Madison, Wis.). The assay determines the number of viable cells in culture based on the quantitation of ATP present which is an indicator of metabolically active cells.
(§3) The experiments performed for assessing the effect of these other Bcl-2 inhibitors were performed essentially as described in Example 7. Cells were exposed to ABT-199 at serial dilution concentrations ranging from 15 nM to 100 μM (FIGS. 26 and 27). Cells were exposed to Obatoclax at concentrations ranging from 1.4 nM to 9 μM (FIG. 28).
(§4) The effect of ABT-263 in combination with the Akt inhibitor MK-2206 was tested for selective toxicity of senescent cells compared to non-senescent cells in IMR90 cells. The methods of Example 7 were repeated except that cell cultures were exposed to 10 nM MK-2206 (Selleckem, Cat# S1078) in addition to serial dilutions of ABT-263.

[4] = tested on: non-senescent IMR90 cells; experiment: CellTiter-Glo cell viability assay, non-senescent IMR90; type: cell-based; settings: Homo sapiens, IMR-90, 72 h, IMR90, 3 days
Protocol: as §1, §2, §3, §4

[5] = tested on: p16-3MR mice; experiment: Senescence induced by chemotherapeutic drugs in p16-3MR mice (luminescence, skin mRNA); type: in vivo, mouse; settings: for level of senescent cells (luminescence): p<0.05
Protocol: Paclitaxel induces senescence and SASP in p16-3MR transgenic mice. Groups of mice (n=4) were treated three times every two days with 20 mg/kg paclitaxel or vehicle. […] The level of mRNA in skin was determined for each of the target genes: p16, 3MR transgene, and IL-6.
To examine senescence induced by different chemotherapeutic drugs, groups of p16-3MR animals (n=4) were treated with thalidomide (100 mg/kg; 7 daily injections); romidepsin (1 mg/kg; 3 injections); pomalidomide (5 mg/kg; 7 daily injections); lenalidomide (50 mg/kg; 7 daily injections); 5-azacytidine (5 mg/kg; 3 injections) and compared with doxorubicin (10 mg/kg, 2-4 injections over 7 days).

## OCc1ccc(-c2ccc(-c3ccc(CO)s3)o2)s1 [RITA, 5,5′-(2,5-Furandiyl)bis-2-thiophenemethanol]
[1]
  EC50: 223 µM
[2]
  EC50 dose ratio HD NsC/SnC: 0.9
  EC50: 254 µM

## O=C(/C=C/c1ccc(I)cc1)c1ccc(B(O)O)cc1 [Boronate, trans-4-Iodo, 4′-boranyl-chalcone]
[1]
  EC50: 153 µM
[2]
  EC50 dose ratio HD NsC/SnC: 14.1
  selectivity for senescent cells over quiescent cells: particularly high selectivity
  EC50: 10.8 µM
[2]; listed as boronate
  selectivity for senescent cells over quiescent cells: high specificity

## COc1cc(C(=O)O)ccc1NC(=O)[C@@H]1N[C@@H](CC(C)(C)C)[C@](C#N)(c2ccc(Cl)cc2F)[C@H]1c1cccc(Cl)c1F [RG7388, 4-[[(2R,3S,4R,5S)-3-(3-chloro-2-fluorophenyl)-4-(4-chloro-2-fluorophenyl)-4-cyano-5-(2,2-dimethylpropyl)pyrrolidine-2-carbonyl]amino]-3-methoxybenzoic acid]
[1]
  EC50: 31.5 µM
[2]
  EC50 dose ratio HD NsC/SnC: 1.0
  EC50: 32.8 µM

## CC1(C)CCC(CN2CCN(c3ccc(C(=O)NS(=O)(=O)c4ccc(NCC5CCOCC5)c([N+](=O)[O-])c4)c(Oc4cnc5[nH]ccc5c4)c3)CC2)=C(c2ccc(Cl)cc2)C1 [ABT-199, 4-[4-[[2-(4-Chlorophenyl)-4,4-dimethylcyclohex-1-en-1-yl]methyl]piperazin-1-yl]-N-[[3-nitro-4-[[(tetrahydro-2H-pyran-4-yl)methyl]amino]phenyl]sulfonyl]-2-[(1H-pyrrolo[2,3-b]pyridin-5-yl)oxy]benzamide]
[3]; Homo sapiens, IMR-90, 72 h, IMR90, 3 days, read-out: IC50 in senescent cells
  IC50: 6.9 to 12.4 µM
[3]; IMR90
  selective targeting of senescent cells over non-senescent cells: inability
[4]; CellTiter-Glo, read-out: IC50 on non-senescent cells
  IC50: 6 to 15.8 µM

## Nc1cccc2c1CN(C1CCC(=O)NC1=O)C2=O (centres unmarked) [lenalidomide]
[5]
  level of senescent cells (luminescence): significant levels of senescent cells

## O=C1c2c(c(-c3ccccc3)nn2Cc2ccccc2)C(c2ccc(Br)cc2)N1CCCn1ccnc1 (centres unmarked) [CAY10681, 4-(4-bromophenyl)-4,5-dihydro-5-[3-(1H-imidazol-1-yl)propyl]-3-phenyl-1-(phenylmethyl)-pyrrolo[3,4-c]pyrazol-6(1H)-one]
[1]
  EC50: 17.6 µM
[2]
  EC50 dose ratio HD NsC/SnC: 1.6
  EC50: 11 µM

## COc1cccc2c1C(=O)c1c(O)c3c(c(O)c1C2=O)C[C@@](O)(C(=O)CO)C[C@@H]3O[C@H]1C[C@H](N)[C@H](O)[C@H](C)O1 [doxorubicin]
[5]
  level of senescent cells (luminescence): significant levels of senescent cells

## Nc1cccc2c1C(=O)N(C1CCC(=O)NC1=O)C2=O (centres unmarked) [omalidomide]
[5]
  level of senescent cells (luminescence): significant levels of senescent cells

## CC(C)[C@@H](CS(=O)(=O)C(C)C)N1C(=O)[C@@](C)(CC(=O)O)C[C@H](c2cccc(Cl)c2)[C@H]1c1ccc(Cl)cc1 [AMG-232, 2-((3R,5R,6S)-5-(3-chlorophenyl)-6-(4-chlorophenyl)-1-((S)-1-(isopropylsulfonyl)-3-methylbutan-2-yl)-3-methyl-2-oxopiperidin-3-yl)acetic acid]
[1]
  EC50: 4.1 µM
[2]
  EC50 dose ratio HD NsC/SnC: 1.2
  EC50: 3.4 µM

## CC(=O)O[C@H]1C(=O)[C@@]2(C)[C@H]([C@H](OC(=O)c3ccccc3)[C@]3(O)C[C@H](OC(=O)[C@H](O)[C@@H](NC(=O)c4ccccc4)c4ccccc4)C(C)=C1C3(C)C)[C@]1(OC(C)=O)CO[C@@H]1C[C@@H]2O [paclitaxel]
[5]; 20 mg/kg three times every two days
  senescence shown by luminescence: Senescence was observed
[5]; 20 mg/kg three times every two days, versus vehicle
  levels of mRNA for p16, 3MR and IL-6 in skin: increased

## COC1=CC(c2cc3ccccc3[nH]2)=N/C1=C\c1[nH]c(C)cc1C [Obatoclax]
[4]; read-out: IC50 in non-senescent cells
  IC50: 0.075 µM

## CCCCn1c(=O)[nH]c(O)c(C2NCCc3c2[nH]c2ccccc32)c1=O (centres unmarked) [MEL23, 3-Butyl-6-hydroxy-5-(2,3,4,9-tetrahydro-1H-pyrido[3,4-b]indol-1-yl)pyrimidine-2,4(1H,3H)-dione]
[1]
  EC50: 20.9 µM
[2]
  EC50 dose ratio HD NsC/SnC: 5.2
  EC50: 4 µM
[2]; listed as Me123
  selectivity for senescent cells over quiescent cells: high specificity; also recorded: particularly high selectivity

## c1ccc2c(CCNc3ccc(Nc4ccncc4)cc3)c[nH]c2c1 [JNJ 26854165, N1-(2-(1H-indol-3-yl)ethyl)-N4-(pyridin-4-yl)benzene-1,4-diamine]
[1]
  EC50: 6.6 µM
[2]
  EC50 dose ratio HD NsC/SnC: 6.5
  selectivity for senescent cells over quiescent cells: high specificity; also recorded: particularly high selectivity
  EC50: 1 µM

## O=C1c2c(c(-c3ccccc3)nn2Cc2ccc(F)cc2)C(c2ccc(Br)cc2)N1CCCn1ccnc1 (centres unmarked) [CAY10682, 4-(4-bromophenyl)-1-[(4-fluorophenyl)methyl]-4,5-dihydro-5-[3-(1H-imidazol-1-yl)propyl]-3-phenyl-pyrrolo[3,4-c]pyrazol-6(1H)-one]
[1]
  EC50: 14.3 µM
[2]
  EC50 dose ratio HD NsC/SnC: 1.3
  EC50: 11.2 µM

## Cn1c(=O)c([N+](=O)[O-])c(Cl)c2ccccc21 [ML214]
[3]; irradiated and non-senescent IMR90
  level of killing of senescent cells versus non-senescent cells: comparable to the level of killing of non-senescent cells
